The values that follow come from patent publication US20240309090A1, “MODULATION OF ANDROGEN SIGNALING TO INNATE IMMUNE KILLING OF PROSTATE CANCER” (Brown University, priority 2023, published 2024).

Common to all, as to assay type: cell-based
Data set [1] has as its system DU145. Kind of data set: Flow cytometry of HLA-E surface expression on non-AR-transduced DU145. The text has this:
(§1) To evaluate the modulation of the androgen receptor and tumor HLA-E expression, we astably transduced AR negative cell lines PC3 and DU145 with an Androgen Response Element (ARE) GFP reporter (FIG. 16H). […] Using AR+ constructed cell lines, PC3 and DU145, we sought to determine the dependence of HLA-E expression and possible modulation by AR. […] Although potential therapies targeting immune enhancement are being explored, the expression of exhaustion markers such as PD-1, NKG2A, and potential engaging ligands that diminish their cytotoxic function limits their application. Exploring these factors with new combination approaches, such as ARi and anti-NKG2A, and understanding the modulation of its targets upon treatment is key in overcoming immune-resistant scenarios, especially in prostate cancer.
(§2) PCa cells were plated at a density of 3×10^5 cells per well of a 6-well plate and adhered overnight. […] After treatment, cells were trypsinized, stained, and incubated (Cell Staining Buffer SouthernBiotech #0225-01S) with the corresponding antibody for 45-60 min at 4° C. Viability dye was added with each run. NK-92 cells and patient-derived cells were stained similarly. […]
(In general: Flow cytometry measures light scatter and fluorescence of single cells or particles in a stream.)

For another data set, the system named is PC3 cell line. As to the kind of experiment: Flow cytometry of HLA-E surface expression on AR-negative PC3. To be noted: non-AR-transduced PC3.
Description: as §1
Experiments were conducted with noncytotoxic doses of vorinostat (0.3 μM) and panobinostat (3 nM).
PCa cells were plated at a density of 3×10^5 cells per well of a 6-well plate and adhered overnight. […] After treatment, cells were trypsinized, stained, and incubated (Cell Staining Buffer SouthernBiotech #0225-01S) with the corresponding antibody for 45-60 min at 4° C. Viability dye was added with each run. NK-92 cells and patient-derived cells were stained similarly. Markers used for experiments included: Thermofisher HLA-E Monoclonal Antibody (3D12HLA-E), Alexa Fluor™ 488, eBioscience™, CD274 (PD-L1, B7-H1) Monoclonal Antibody (MIH1), eFluor™ 450, eBioscience™, Cell Signaling PD-1 (D4W2J) XPR Rabbit mAb, SYTOX™ Orange Dead Cell Stain, for flow cytometry, BioLegend APC anti-human CD159a (NKG2A) Antibody #375108, BioLegend APC anti-human CD69 Antibody #310909, BioLegend Alexa Fluor® 647 anti-human CD137 (4-1BB) [4B4-1] #309823. For staining of the patient-derived PBMCs and subsequent NK cell characterization, the following antibodies were used: BioLegend Anti-Perforin Mouse Monoclonal Antibody (PerCP Cy5.50, clone: dG9) #308113, BioLegend Anti-Granzyme B Mouse Monoclonal Antibody (FITC, clone: GB11) #515403, BioLegend Anti-CD56 Mouse Monoclonal Antibody (Alexa Fluor® 700, clone: 5.1H1) #362521, and BioLegend (PE anti-human CD45 Antibody) #304008.

For data set [2], the system named is AR-transduced PC3-AR and DU145 cell lines. Kind of data set: Flow cytometry of HLA-E surface expression on AR-transduced PC3 and DU145.
Description: as §1, §2

The next data set relates to NK-92 cells. Kind of data set: NK cell viability assay (CellTiterGlo). The following applies: NK cells alone, doses used in co-culture. (In general: In ATP-based viability assays light output follows the ATP content of the culture.)
In a further data set the test system is LNCaP. As to the kind of experiment: Co-culture of LNCaP with NK-92 cells, immune-mediated tumor cell killing. The method, then: (§3) They were co-treated with enzalutamide ([…]) or darolutamide (20 μM) for 48 h. Doses of AR inhibitors (ARi) used in the co-culture experiments were based on previous IC50 experiments. […] The immune-mediated effect of NK-92 on the PCa cell lines in the presence of enzalutamide (immune enhancement death) was normalized to baseline immune and tumor cell killing in each condition [(tumor cells+immune cells)-tumor baseline death=baseline immune death]. […] Cytokine analysis was performed to investigate the activation phenotype of NK cells when treated with ARi.
Prostate cancer cell lines were dyed with the blue CMAC live-cell dye (Thermo Fisher Scientific #C2110, per manufacturer protocol). Blue-fluorescent cancer cells were plated at a density of 10,000 cells per well of a 48-well plate. NK-92 cells were dyed with green CMFDA (Cayman Chemical Company #19583, per manufacturer protocol). Green-fluorescent NK-92 cells were added to the blue-fluorescent cancer cells at a 1:1 ratio. Enzalutamide (10 μM), darolutamide (20 μM), and 1 μM ethidium homodimer (EthD-1) were added at the same time as the NK cells. After 24 hours of co-culture, images of live cancer cells, live NK cells, and dead cells were taken using a fluorescent microscope. The co-culture experiments were run with internal control conditions and as a single treatment. Normalization was performed after analysis to take baseline death conditions into each experiment run. […] Cell adhered over 24 h, and when patient-derived NK cells were added, a control well was trypsinized, and cells resuspended and counted to adjust a 1:1 ratio before treatment addition. […]
(§4) Live cancer cells, NK cells, and dead cells were quantified using FIJI (Fiji Is Just ImageJ) software for images derived from fluorescent co-culture images. Images from the ImageXpress system were quantified using MetaXpress cytoplasmic/nuclear staining software. The percent of dead tumor cells in each well was quantified, and this percentage was normalized by subtracting baseline death from cancer cell-only wells, NK cell-only wells, or both.

The next data set relates to PC3. Kind of data set: Co-culture of PC3 with NK-92 cells, immune-mediated tumor cell killing. To be noted: PC3 + NK-92 1:1, 24 hours. The method, then:
as §3
(§5) Prostate cancer cell lines were dyed with the blue CMAC live-cell dye (Thermo Fisher Scientific #C2110, per manufacturer protocol). […] Cell adhered over 24 h, and when patient-derived NK cells were added, a control well was trypsinized, and cells resuspended and counted to adjust a 1:1 ratio before treatment addition. […]
as §4

In data set [3] the test system is DU145. As to the kind of experiment: Co-culture of DU145 with NK-92 cells, immune-mediated tumor cell killing. To be noted: DU145 + NK-92 1:1, 24 hours. The method, then: as §3, §5, §4

With `CC(O)c1cc(C(=O)N[C@@H](C)Cn2ccc(-c3ccc(C#N)c(Cl)c3)n2)n[nH]1` (stereo partly drawn) [darolutamide], the HLA-E expression is on record as 1.23% in the data set on DU145 [1] and 15.47% in the data set with PC3 cell line. For the same molecule, the “HLA-E surface expression upon ARi” value in data set [2] (AR-responsive PC3-AR) and in data set [2] (AR-transduced (AR-responsive) DU145) was “increased” in each case.
As for `CNC(=O)c1ccc(N2C(=S)N(c3ccc(C#N)c(C(F)(F)F)c3)C(=O)C2(C)C)cc1F` [enzalutamide], the NK cell viability entry in the data set on NK-92 cells is recorded as “noncytotoxic”. Also, the “cell death rate (NK cell-mediated tumor killing)” value is 48.3% with LNCaP (LNCaP + NK-92 1:1, 24 hours); 11.05±4.6% in the data set on PC3; 34.8±4.92% in the data set with DU145 [3]. In the data set on LNCaP (LNCaP + NK-92 1:1, enzalutamide 10 μM, FIG. 15A), the “NK cell killing of PCa cells (immune enhancement)” value is 35.32%.
